Assay results published in US6355799B1, “Substituted benzene compounds, process for their preparation, and herbicidal and defoliant compositions containing them” (ISK Americas Incorporated, priority 1997, dated 2002).

How the values were obtained:
Type in all cases: in vivo
[1] = tested on: redroot pigweed (Amaranthus retroflexus, AMARE); assay: Pre-emerge test, greenhouse herbicide activity screening; conditions: pre-emerge, rated 14 days after application, 0 = no damage, 100 = complete death
How it was run: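 Compounds in acetone were track-sprayed at 187 l/ha, 15–1000 g ai/ha, onto sandy loam pots. Pre-emerge seeds were sown one day before spraying, with surface watering afterwards. Post-emerge plants were at the 2–3 leaf stage and sprayed with 0.25% v/v non-ionic surfactant. Injury was rated 0–100 at 14 days.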

[2] = tested on: barnyardgrass (Echinochloa crus-galli, ECHCG); assay: as above; conditions: pre-emerge, rated 14 days after application, 0 = no damage, 100 = complete death
How it was run: (§1)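 Fourteen days after spraying, crop and weed injury was graded visually from 0, no effect, to 100, every plant dead. Test substances were dissolved in acetone and applied at 15–1000 g ai/ha with a flat-fan nozzle. Application was either pre-emergence, one day after sowing, or post-emergence at the 2–3 leaf stage.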

[3] = tested on: common ragweed (Ambrosia artemisizfolia L., AMBEL); assay: as above; conditions: pre-emerge, rated 14 days after application, 0 = no damage, 100 = complete death
How it was run: as §1

[4] = tested on: green foxtail (Setaria viridis, SETVI); assay: as above; conditions: pre-emerge, rated 14 days after application, 0 = no damage, 100 = complete death
How it was run: as §1

[5] = tested on: ivyleaf morningglory (Ipomoea hederacea, IPOHE); assay: as above; conditions: pre-emerge, rated 14 days after application, 0 = no damage, 100 = complete death
How it was run: as §1

[6] = tested on: johnsongrass (Sorghum halepense, SORHA); assay: as above; conditions: pre-emerge, rated 14 days after application, 0 = no damage, 100 = complete death
How it was run: as §1

[7] = tested on: lambsquarters (Chenopodium album, CHEAL); assay: as above; conditions: pre-emerge, rated 14 days after application, 0 = no damage, 100 = complete death
How it was run: as §1

[8] = tested on: large crabgrass (Digitaria sanguinalis, DIGSA); assay: as above; conditions: pre-emerge, rated 14 days after application, 0 = no damage, 100 = complete death
How it was run: as §1

[9] = tested on: sicklepod (Cassia obtusifolia, CASOB); assay: as above; conditions: pre-emerge, rated 14 days after application, 0 = no damage, 100 = complete death
How it was run: as §1

[10] = tested on: velvetleaf (Abutilon theophrasti, ABUTH); assay: as above; conditions: pre-emerge, rated 14 days after application, 0 = no damage, 100 = complete death
How it was run: as §1

[11] = tested on: field corn (Zea mays L., var. Dekalb 535, CORN); assay: Pre-emerge test, crop safety; conditions: pre-emerge, rated 14 days after application, 0 = no damage, 100 = complete death
How it was run: (§2)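 Rating: 0–100 visual injury, 14 DAA. Application: acetone, 187 l/ha, 15–1000 g ai/ha, flat-fan track sprayer with nozzle 40–45 cm above soil or canopy. Post-emerge runs used 0.25% v/v surfactant on 2–3 leaf plants.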

[12] = tested on: upland rice (Oryza sp., var. Tebonnet, RICE); assay: Pre-emerge test, crop safety; conditions: pre-emerge, rated 14 days after application, 0 = no damage, 100 = complete death
How it was run: as §2

[13] = tested on: barnyardgrass (Echinochloa crus-galli, ECHCG); assay: Post-emerge test, greenhouse herbicide activity screening; conditions: phytotoxicity rating 0-100 (0 no damage, 100 complete death), 14 days after application
How it was run: as §1

[14] = tested on: common ragweed (Ambrosia artemisizfolia L., AMBEL); assay: as above; conditions: phytotoxicity rating 0-100 (0 no damage, 100 complete death), 14 days after application
How it was run: as §1

[15] = tested on: green foxtail (Setaria viridis, SETVI); assay: as above; conditions: phytotoxicity rating 0-100 (0 no damage, 100 complete death), 14 days after application
How it was run: as §1

[16] = tested on: ivyleaf morningglory (Ipomoea hederacea, IPOHE); assay: as above; conditions: phytotoxicity rating 0-100 (0 no damage, 100 complete death), 14 days after application
How it was run: as §1

[17] = tested on: johnsongrass (Sorghum halepense, SORHA); assay: as above; conditions: phytotoxicity rating 0-100 (0 no damage, 100 complete death), 14 days after application
How it was run: as §1

[18] = tested on: lambsquarters (Chenopodium album, CHEAL); assay: as above; conditions: phytotoxicity rating 0-100 (0 no damage, 100 complete death), 14 days after application
How it was run: as §1

[19] = tested on: large crabgrass (Digitaria sanguinalis, DIGSA); assay: as above; conditions: phytotoxicity rating 0-100 (0 no damage, 100 complete death), 14 days after application
How it was run: as §1

[20] = tested on: redroot pigweed (Amaranthus retroflexus, AMARE); assay: as above; conditions: phytotoxicity rating 0-100 (0 no damage, 100 complete death), 14 days after application
How it was run: as §1

[21] = tested on: sicklepod (Cassia obtusifolia, CASOB); assay: as above; conditions: phytotoxicity rating 0-100 (0 no damage, 100 complete death), 14 days after application
How it was run: as §1

[22] = tested on: velvetleaf (Abutilon theophrasti, ABUTH); assay: as above; conditions: phytotoxicity rating 0-100 (0 no damage, 100 complete death), 14 days after application
How it was run: as §1

[23] = tested on: field corn (Zea mays L., var. Dekalb 535, CORN); assay: Post-emerge test, crop safety; conditions: phytotoxicity rating 0-100 (0 no damage, 100 complete death), 14 days after application
How it was run: as §1

[24] = tested on: upland rice (Oryza sp., var. Tebonnet, RICE); assay: Post-emerge test, crop safety; conditions: phytotoxicity rating 0-100 (0 no damage, 100 complete death), 14 days after application
How it was run: as §1

COc1c(Cl)cc(F)c(-n2c(=O)cc(C(F)(F)F)n(N)c2=O)c1N [Compound 1-13]
90: Pre-emerge Herbicidal Activity ECHCG (phytotoxicity rating, scale 0-100) ([2]; 63 g ai/ha) | Post-emerge Herbicidal Activity SETVI ([15]; 250 g ai/ha) | Post-emerge Herbicidal Activity SORHA ([17]; 250 g ai/ha)
60: Pre-emerge crop damage CORN (phytotoxicity rating, scale 0-100) ([11]; 63 g ai/ha)
70: Post-emerge Herbicidal Activity ECHCG ([13]; 250 g ai/ha) | Post-emerge Herbicidal Activity AMBEL ([14]; 63 g ai/ha) | Post-emerge Herbicidal Activity CASOB ([21]; 250 g ai/ha)
20: Post-emerge Herbicidal Activity CORN (crop damage) ([23]; 63 g ai/ha)
100: Pre-emerge Herbicidal Activity AMARE (phytotoxicity rating, scale 0-100) ([1]; 63 g ai/ha) | Pre-emerge Herbicidal Activity AMARE (phytotoxicity rating, scale 0-100) ([1]; 250 g ai/ha) | Pre-emerge Herbicidal Activity ECHCG (phytotoxicity rating, scale 0-100) ([2]; 250 g ai/ha) | Pre-emerge Herbicidal Activity AMBEL (phytotoxicity rating, scale 0-100) ([3]; 63 g ai/ha) | Pre-emerge Herbicidal Activity AMBEL (phytotoxicity rating, scale 0-100) ([3]; 250 g ai/ha) | Pre-emerge Herbicidal Activity SETVI (phytotoxicity rating, scale 0-100) ([4]; 63 g ai/ha) | Pre-emerge Herbicidal Activity SETVI (phytotoxicity rating, scale 0-100) ([4]; 250 g ai/ha) | Pre-emerge Herbicidal Activity IPOHE (phytotoxicity rating, scale 0-100) ([5]; 63 g ai/ha) | Pre-emerge Herbicidal Activity IPOHE (phytotoxicity rating, scale 0-100) ([5]; 250 g ai/ha) | Pre-emerge Herbicidal Activity SORHA (phytotoxicity rating, scale 0-100) ([6]; 250 g ai/ha) | Pre-emerge Herbicidal Activity CHEAL (phytotoxicity rating, scale 0-100) ([7]; 63 g ai/ha) | Pre-emerge Herbicidal Activity CHEAL (phytotoxicity rating, scale 0-100) ([7]; 250 g ai/ha) | Pre-emerge Herbicidal Activity DIGSA (phytotoxicity rating, scale 0-100) ([8]; 63 g ai/ha) | Pre-emerge Herbicidal Activity DIGSA (phytotoxicity rating, scale 0-100) ([8]; 250 g ai/ha) | Pre-emerge Herbicidal Activity CASOB (phytotoxicity rating, scale 0-100) ([9]; 250 g ai/ha) | Pre-emerge Herbicidal Activity ABUTH (phytotoxicity rating, scale 0-100) ([10]; 63 g ai/ha) | Pre-emerge Herbicidal Activity ABUTH (phytotoxicity rating, scale 0-100) ([10]; 250 g ai/ha) | Pre-emerge crop damage RICE (phytotoxicity rating, scale 0-100) ([12]; 250 g ai/ha) | Post-emerge Herbicidal Activity IPOHE ([16]; 63 g ai/ha) | Post-emerge Herbicidal Activity IPOHE ([16]; 250 g ai/ha) | Post-emerge Herbicidal Activity CHEAL ([18]; 63 g ai/ha) | Post-emerge Herbicidal Activity CHEAL ([18]; 250 g ai/ha) | Post-emerge Herbicidal Activity AMARE ([20]; 63 g ai/ha) | Post-emerge Herbicidal Activity AMARE ([20]; 250 g ai/ha) | Post-emerge Herbicidal Activity ABUTH ([22]; 63 g ai/ha) | Post-emerge Herbicidal Activity ABUTH ([22]; 250 g ai/ha)
0: Post-emerge Herbicidal Activity DIGSA ([19]; 63 g ai/ha)
80: Pre-emerge Herbicidal Activity CASOB (phytotoxicity rating, scale 0-100) ([9]; 63 g ai/ha) | Post-emerge Herbicidal Activity CORN (crop damage) ([23]; 250 g ai/ha) | Post-emerge Herbicidal Activity RICE (crop damage) ([24]; 250 g ai/ha)
10: Post-emerge Herbicidal Activity SORHA ([17]; 63 g ai/ha)
30: Post-emerge Herbicidal Activity ECHCG ([13]; 63 g ai/ha) | Post-emerge Herbicidal Activity SETVI ([15]; 63 g ai/ha) | Post-emerge Herbicidal Activity CASOB ([21]; 63 g ai/ha) | Post-emerge Herbicidal Activity RICE (crop damage) ([24]; 63 g ai/ha)
85: Post-emerge Herbicidal Activity AMBEL ([14]; 250 g ai/ha)
95: Pre-emerge Herbicidal Activity SORHA (phytotoxicity rating, scale 0-100) ([6]; 63 g ai/ha) | Pre-emerge crop damage CORN (phytotoxicity rating, scale 0-100) ([11]; 250 g ai/ha) | Pre-emerge crop damage RICE (phytotoxicity rating, scale 0-100) ([12]; 63 g ai/ha)
75: Post-emerge Herbicidal Activity DIGSA ([19]; 250 g ai/ha)
